Laboratory results published in patent US5688805A, “Tricyclic derivatives, compositions and methods of use” (Schering Corporation, priority 1995, dated 1997).

Columns and labels:
TNF-α = assay: In Vitro Study: Inhibition of LPS-Induced TNF-α Production From the Murine Cell Line WEHI-265; type: cell-based; conditions: for inhibition at 10 µM: Mus musculus, WEHI-265 cells, LPS, 20-24 hours
Procedure: This test procedure is a standard test used to determine anti-TNF-α activity and to evaluate the usefulness of said compounds for counteracting the biological effects of TNF-α.
In Vitro Study: Inhibition of LPS-Induced TNF-α Production From the Murine Cell Line WEHI-265
1) Cells (obtained from cell cultures containing ≤10^6 cells/ml) are suspended at 0.2×10^6 cells/ml in complete medium (RPMI1640, with 10% FCS, 10^-5 M 2-ME, 2 mM glutamine and 10 mM HEPES buffer) and plated in CoStar 24 well plates (1.0 ml/well).
2) Compounds are dissolved in the appropriate vehicle at 400 times the concentration to be tested, and 5 μl of compound is added to the wells.
3) LPS (from E. coli 0111:B4) is diluted to 6 μg/ml and 1.0 ml is added to wells.
4) Plates are incubated 20-24 hours in 37° C. CO2 incubator.
5) Supernatant fluids are collected and analyzed for TNF content as described in J. lmmunol., 142:3884.

TNF = assay: In Vivo Study: Inhibition of LPS-Induced Serum TNF; design: species or system Mice (C57BI/6J males); conditions: Mus musculus, 1.5 h; 25 mg/kg orally or i.p. one hour before LPS (50 μg i.p.); bled 90 min after LPS; serum TNF by ELISA
Procedure: In addition to the in vitro test described above, the following in vivo test was also performed on several of the compounds of the present invention.
2. In Vivo Study: Inhibition of LPS-Induced Serum TNF
1) Mice (C57BI/6J males, 6-8 weeks of age) are dosed with the indicated compound (dissolved in CMC suspension vehicle; compounds are given orally or i.p. one hour before LPS challenge).
3) Mice are bled 90 min after LPS challenge.
4) Sera are analyzed for TNF content by ELISA as described in J. Immunol.

[1] = test system: LPS/Galactosamine-Induced Lethality; assay: In Vivo Study: Inhibition of LPS/Galactosamine-Induced Lethality; design: species or system Mice (C57BI/6J males); conditions: 25 mg/kg orally or i.p. one hour before LPS (100 ng) and d-galactosamine (8 mg) i.p.; survival at 24 hours
Procedure: This test procedure is a standard test used to determine activity against septic shock.
3. In Vivo Study: Inhibition of LPS/Galactosamine-Induced Lethality
Mice (C57BI/6J males, 6-8 weeks of age) are dosed with the indicated compound (dissolved in CMC suspension vehicle; compounds are given orally or i.p. one hour before challenge with LPS and d-galactosamine).
Mice are challenged i.p. with a mixture of LPS (from E. coli 0111:B4; 100 ng) and d-galactosamine (8 mg).
Survival is determined 24 hours after challenge. See procedure

Q: For `C=CCC1(C2=CCN(C)CC2)c2ccccc2CCc2ccccc21` [Compound IB, 4-[10,11-dihydro-5-(2-propenyl)-5H-dibenzo[a,d]cyclohepten-5-yl]-1-methyl-1,2,5,6-tetrahydropyridine], which inhibition at 10 µM (TNF-α) is on record?
A: The inhibition at 10 µM was 70%.

Q: What about the inhibition in vivo at 25 mg/kg (TNF) of the same compound?
A: Its inhibition in vivo at 25 mg/kg is 80%.

Q: What about the “# DEAD/TOTAL AT 25 MG/KG” value [1] of the same compound?
A: The value was 0/8.

Q: Which inhibition at 10 µM (TNF-α) does the source give for `c1ccc2c(c1)CCc1ccccc1C2C1CCCNC1` (stereo not drawn) [Compound ID, 3-(10,11-dihydro-5H-dibenzo[a,d]cyclohepten-5-yl)-piperidine acetic acid] here?
A: Its inhibition at 10 µM is 51%.

Q: With `C=CCC1(C2=CCNCC2)c2ccccc2CCc2ccccc21` [Compound IE, 4-[10,11-dihydro-5-(2-propenyl)-5H-dibenzo[a,d]cyclohepten-5-yl]-1,2,5,6-tetrahydro(1H)-pyridine] as the compound, how does the inhibition at 10 µM (TNF-α) read?
A: Its inhibition at 10 µM is 61%.

Q: And the “# DEAD/TOTAL AT 25 MG/KG” value [1]?
A: The value was 7/8.

Q: Which inhibition at 10 µM (TNF-α) does the source give for `CCCC1(C2=CCN(C)CC2)c2ccccc2CCc2ccccc21` [Compound IF, 4-[10,11-dihydro-5-propyl-5H-dibenzo[a,d]cyclohepten-5-yl]-1-methyl-1,2,5,6-tetrahydropyridine] here?
A: Its inhibition at 10 µM is 28%.

Q: And the inhibition in vivo at 25 mg/kg (TNF)?
A: Its inhibition in vivo at 25 mg/kg is 50%.

Q: And the “# DEAD/TOTAL AT 25 MG/KG” value [1]?
A: Its value is 5/8.

Q: How did the inhibition at 10 µM (TNF-α) turn out when `C=CCC1(C2=CCN(C(C)=O)CC2)c2ccccc2CCc2ccccc21` [Compound IG, 1-acetyl-4-[10,11-dihydro-5-(2-propenyl)-5H-dibenzo[a,d]cyclohepten-5-yl]-1,2,5,6-tetrahydro-1H-pyridine] was run?
A: The inhibition at 10 µM was 27%.

Q: How did the inhibition at 10 µM (TNF-α) turn out when `CCCC1(C2CCN(C)CC2)c2ccccc2CCc2ccccc21` [Compound IJ, 4-[10,11-dihydro-5-propyl-5H-dibenzo[a,d]cyclohepten-5-yl]-1-methylpiperidine] was run?
A: Its inhibition at 10 µM is 55%.

Q: For `CN1CC=C(C2c3ccccc3CCc3ccccc32)CC1` [Compound IL, 4-(10,11-dihydro-5H-dibenzo[a,d]cyclohepten-5-yl)-1-methyl-1,2,5,6-tetrahydropyridine], which inhibition at 10 µM (TNF-α) is on record?
A: The inhibition at 10 µM was 23%.

Q: And the inhibition in vivo at 25 mg/kg (TNF)?
A: The inhibition in vivo at 25 mg/kg was 58%.

Q: And the “# DEAD/TOTAL AT 25 MG/KG” value [1]?
A: The value was 1/9.

Q: With `C=CCC1(C2=CC[N+](C)(C)CC2)c2ccccc2CCc2ccccc21.[I-]` [Compound IM, 4-[10,11-dihydro-5-(2-propenyl)-5H-dibenzo[a,d]cyclohepten-5-yl]-1,1-dimethyl-1,2,5,6-tetrahydropyridinium iodide] as the compound, how does the inhibition at 10 µM (TNF-α) read?
A: The inhibition at 10 µM was 8%.

Q: What about the inhibition in vivo at 25 mg/kg (TNF) of the same compound?
A: The inhibition in vivo at 25 mg/kg was 27%.

Q: And the “# DEAD/TOTAL AT 25 MG/KG” value [1]?
A: Its value is 2/11.

Q: `C=CCC1(C2=CCN(Cc3ccccc3)CC2)c2ccccc2CCc2ccccc21` [Compound IN, 4-[10,11-dihydro-5-(2-propenyl)-5H-dibenzo[a,d]cyclohepten-5-yl]-1-(phenylmethyl)-1,2,5,6-tetrahydro-1H-pyridine] was tested. Which inhibition at 10 µM (TNF-α) did it give?
A: The inhibition at 10 µM was 25%.

Q: And the inhibition in vivo at 25 mg/kg (TNF)?
A: The inhibition in vivo at 25 mg/kg was 42%.

Q: What about the “# DEAD/TOTAL AT 25 MG/KG” value [1] of the same compound?
A: Its value is 10/10.

Q: For `C=CCC1(C2=CCN(C(C)C)CC2)c2ccccc2CCc2ccccc21` [Compound IP], which inhibition at 10 µM (TNF-α) is on record?
A: Its inhibition at 10 µM is 62%.

Q: What about the inhibition in vivo at 25 mg/kg (TNF) of the same compound?
A: Its inhibition in vivo at 25 mg/kg is 28%.

Q: What about the “# DEAD/TOTAL AT 25 MG/KG” value [1] of the same compound?
A: The value was 6/10.

Q: Which inhibition at 10 µM (TNF-α) does the source give for `CN1CCCC(C2c3ccccc3CCc3ccccc32)C1` (stereo not drawn) [Compound IR, 3-(10,11-dihydro-5H-dibenzo[a,d]cyclohepten-5-yl)-1-methyl-piperidine] here?
A: The inhibition at 10 µM was 60%.

Q: With `C[N+]1(C)CC=C(C2c3ccccc3CCc3ccccc32)CC1` [Compound IY, 4-(10,11-dihydro-5H-dibenzo[a,d]cyclohepten-5-yl)-1,1-dimethyl-1,2,5,6-tetrahydropyridinium iodide] as the compound, how does the inhibition at 10 µM (TNF-α) read?
A: The inhibition at 10 µM was 12%.

Q: How did the inhibition at 10 µM (TNF-α) turn out when `CN1CCC(C2c3ccccc3CCc3ccccc32)CC1` [Compound K, reference compound] was run?
A: Its inhibition at 10 µM is 17%.

Q: What about the “anti-TNF-α activity (in words)” value (TNF-α; general statement) of the same compound?
A: The value was “has anti-TNF-α activity”.

Q: What about the inhibition in vivo at 25 mg/kg (TNF) of the same compound?
A: The inhibition in vivo at 25 mg/kg was 82%.

Q: What about the “# DEAD/TOTAL AT 25 MG/KG” value [1] of the same compound?
A: Its value is 0/10.

Q: Which inhibition at 10 µM (TNF-α) does the source give for `C=CCC1(C2=CCN(C)CC2)c2ccccc2CCc2ccc(Cl)cc21` (stereo not drawn) [IA] here?
A: The inhibition at 10 µM was 80%.

Q: How did the inhibition at 10 µM (TNF-α) turn out when `C=CCC1(C2=CCN(C(=O)OCC)CC2)c2ccccc2CCc2ccccc21` [IC] was run?
A: Its inhibition at 10 µM is 20%.

Q: And the “# DEAD/TOTAL AT 25 MG/KG” value [1]?
A: The value was 4/8.

Q: Which results are given for `C=CCC1(C2=CCN(C)CC2)c2ccccc2C=Cc2ccccc21` [IH]?
A: inhibition at 10 µM (TNF-α): 6%; inhibition in vivo at 25 mg/kg (TNF): 8%; # DEAD/TOTAL AT 25 MG/KG [1]: 4/9

Q: How did the inhibition at 10 µM (TNF-α) turn out when `CN1CC=C(C2(Cc3ccccc3)c3ccccc3CCc3ccccc32)CC1` [IK] was run?
A: Its inhibition at 10 µM is 61%.

Q: And the inhibition in vivo at 25 mg/kg (TNF)?
A: The inhibition in vivo at 25 mg/kg was 45%.

Q: And the “# DEAD/TOTAL AT 25 MG/KG” value [1]?
A: Its value is 5/9.

Q: Which results are given for `CC(C)=CCC1(C2=CCN(C)CC2)c2ccccc2CCc2ccccc21` [IQ]?
A: inhibition at 10 µM (TNF-α): 62%; inhibition in vivo at 25 mg/kg (TNF): 28%; # DEAD/TOTAL AT 25 MG/KG [1]: 4/10

Q: `CN1CC=C(C2(C)c3ccccc3CCc3ccccc32)CC1` [IS] was tested. Which inhibition at 10 µM (TNF-α) did it give?
A: The inhibition at 10 µM was 61%.

Q: What about the inhibition in vivo at 25 mg/kg (TNF) of the same compound?
A: Its inhibition in vivo at 25 mg/kg is 26%.

Q: `CC1(C2=CC[N+](C)(C)CC2)c2ccccc2CCc2ccccc21` [IT] was tested. Which inhibition at 10 µM (TNF-α) did it give?
A: Its inhibition at 10 µM is 9%.

Q: What about the inhibition in vivo at 25 mg/kg (TNF) of the same compound?
A: The inhibition in vivo at 25 mg/kg was 3%.

Q: For `C=CCC1(C2=CCN(C)CC2)c2ccccc2CCc2cccnc21` (stereo not drawn) [IX], which inhibition at 10 µM (TNF-α) is on record?
A: Its inhibition at 10 µM is 38%.

Q: What about the inhibition in vivo at 25 mg/kg (TNF) of the same compound?
A: Its inhibition in vivo at 25 mg/kg is 56%.

Q: What about the “# DEAD/TOTAL AT 25 MG/KG” value [1] of the same compound?
A: Its value is 9/9.
